According to patent US20230085440A1, “METHODS OF PREVENTING AND TREATING PAIN AND ASSOCIATED SYMPTOMS” (Ethismos Research, Inc., priority 2021, published 2023):

Molecular target: T1, 5-HT2c receptor (Homo sapiens, UniProt P28335)
T1 sequence (P28335 33-458): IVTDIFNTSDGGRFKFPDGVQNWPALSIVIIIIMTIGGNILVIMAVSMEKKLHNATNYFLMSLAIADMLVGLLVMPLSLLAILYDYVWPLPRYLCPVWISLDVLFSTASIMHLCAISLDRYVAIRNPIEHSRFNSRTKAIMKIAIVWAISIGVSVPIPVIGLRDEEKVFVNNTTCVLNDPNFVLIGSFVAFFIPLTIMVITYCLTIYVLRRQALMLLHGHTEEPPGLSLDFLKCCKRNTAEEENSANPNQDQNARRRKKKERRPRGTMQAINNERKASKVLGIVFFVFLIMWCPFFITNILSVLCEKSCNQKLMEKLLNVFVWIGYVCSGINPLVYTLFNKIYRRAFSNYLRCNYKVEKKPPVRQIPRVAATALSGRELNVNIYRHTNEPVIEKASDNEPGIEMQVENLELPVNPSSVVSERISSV
Assay: [35S]guanosine 5-O-(3-thio)triphosphate binding (5-HT2c partial agonism)
Assay type: biochemical
Conditions: [35S]GTPgammaS binding, partial agonist

Emax: 52%
Compound: Clc1ccc([C@]23CNC[C@H]2C3)cc1Cl [amitifadine]
